From patent US8937091B2 (Japan Science and Technology Agency, priority 2009, dated 2015)

Tests used:
[1] = test system: SOCE (store operated calcium entry) in CHO cells; experiment: Assay of SOCE (store operated calcium entry)-inhibiting action; assay type: cell-based, Chinese hamster; conditions: Cricetulus griseus, CHO, CHO cells, thapsigargin, read-out: SOCE level (percentage of inhibition); for inhibition at 10 µM: test compound 10 μmol; for inhibition at 30 µM: test compound 30 μmol; for inhibition at 100 µM: test compound 100 μmol
Procedure: The extracellular fluid (i.e., medium) of cultured Chinese hamster ovary (CHO) cells was replaced by BSS containing no calcium. One minute later, a test compound was added. Two minutes later, 1 μM thapsigargin was added to cause depletion of the intracellular calcium store. Nine minutes later, calcium chloride (final concentration: 2 mM) was added to the extracellular fluid. The SOCE-inhibiting action levels at different compound concentrations after the addition of calcium chloride were determined as the percentage of inhibition (%) by evaluating the influence of the compound on the degree of increase in the intracellular calcium concentration.
(§1) Hereafter, the numerals in parentheses written after the TG level, the SOCE level, and the IICR level correspond to the test compound concentrations. The number following the name of each title compound used in the Examples below represents a compound ID number designated arbitrarily by the present inventors.

[2] = test system: IICR (IP3 induced calcium release) in CHO cells; experiment: Assay of IICR (IP3 induced calcium release)-inhibiting action; assay type: cell-based, Chinese hamster; conditions: CHO cells, 10 μM ATP; for inhibition at 10 µM / inhibition at 30 µM / inhibition at 100 µM: Cricetulus griseus, CHO, read-out: IICR level (percentage of inhibition); for inhibition at 30 µM: test compound 30 μmol; for inhibition at 100 µM: test compound 100 μmol
Procedure: The extracellular fluid (i.e., medium) of cultured CHO cells was replaced by BSS containing calcium. One minute later, a test compound was added. Two minutes later, 10 μM ATP was added. The IICR-inhibiting action levels at different compound concentrations after the addition of ATP were determined as the percentage of inhibition (%) by evaluating the influence of the compound on the degree of increase in the intracellular calcium concentration.
as §1

Row | SMILES | inhibition at 10 µM [1] [%] | inhibition at 30 µM [1] [%] | inhibition at 100 µM [1] [%] | inhibition at 10 µM ([2]; test compound 10 μmol) [%] | inhibition at 30 µM [2] [%] | inhibition at 100 µM [2] [%] | IICR level (percentage of inhibition) ([2]; test compound 10 μmol) [%]
1 | CC(CN(CCO)CCO)C(=O)c1ccc(F)cc1 (centres unmarked) [Example 160, 2-(N-bis(hydroxyethyl))amino-1-methylethyl-4-fluorophenylketone] | 0 | 20 | 60 | 0 | 0 | 20 | –
2 | O=C(CCN(CCO)CCO)c1ccccn1 [Example 243, 2-(N-bis-2-hydroxyethyl)aminoethyl-2-pyridylketone] | 0 | 0 | 0 | 0 | 0 | 50 | –
3 | O=C(CCN(CCO)CCO)c1ccc(I)s1 [Example 320] | 20 | 40 | 50 | 0 | 0 | 70 | –
4 | O=C(CCN1CCCCC1CO)c1cccs1 (centres unmarked) [Example 127] | 0 | 0 | 10 | 20 | 20 | 50 | –
5 | CCN(CCO)CCC(=O)c1cc(C)c(C)o1 [Example 226, 2-(N-2-hydroxyethylethyl)aminoethyl-4,5-dimethyl-2-furylketone] | 0 | 0 | 0 | 0 | 0 | 50 | –
6 | CC(C)(C)N(CCC(=O)c1ccc(C#N)cc1)Cc1ccccc1 [Example 302, 2-(N-t-butylbenzyl)aminoethyl-4-cyanophenylketone] | 0 | 0 | 20 | – | 90 | – | 60
7 | CC(C)CN(CCC(=O)c1ccc(Br)s1)CC(C)C [Example 384, 2-(N,N-diisobutyl)aminoethyl-5-bromo-2-thienylketone] | 0 | 10 | 100 | 0 | 35 | 70 | –
8 | O=C(CCNC(c1ccccc1)C(O)c1ccccc1)c1ccc(Br)s1 (centres unmarked) [Example 355, 2-(2-hydroxy-1,2-diphenyl-ethyl)aminoethyl-5-bromo-2-thienylketone] | 0 | 16 | 16 | 0 | 0 | 50 | –
9 | CC(C)N(CCO)CCC(=O)c1ccc[nH]1 [Example 170, 2-(N-isopropyl-2-hydroxyethyl)aminoethyl-2-pyrrolylketone] | 0 | 0 | 0 | 0 | 0 | 0 | –
10 | O=C(CCN1CCCC1O)c1ccc(Br)s1 (centres unmarked) [Example 345, 2-(N-2-hydroxypyrrolidino)aminoethyl-5-bromo-2-thienylketone] | 0 | 0 | 10 | 0 | 20 | 70 | –
11 | O=C(CCNCc1ccccc1)c1ccncc1 [Example 271, 2-(N-benzyl)aminoethyl-4-pyridylketone] | – | 0 | 10 | 10 | 0 | 40 | –
12 | CN(CCO)CCC(=O)c1ccncc1 [Example 262, 2-(N-2-hydroxyethylmethyl)aminoethyl-4-pyridylketone] | 0 | 0 | 0 | 0 | 0 | 70 | –
13 | CC(C)(C)N(CCC(=O)c1ccc(Cl)s1)Cc1ccccc1 [Example 280, 2-(N-t-butylbenzyl)aminoethyl-5-chloro-2-thienylketone] | – | 0 | 30 | 50 | 60 | 70 | –
14 | CC(C)N(CCC(=O)c1cccs1)Cc1ccccc1 [Example 183, 2-(N-isopropylbenzyl)aminoethyl-2-thiophenylketone] | 0 | 0 | 20 | 0 | 0 | 50 | –
15 | CC(C)(C)N(CCC(=O)c1cccs1)Cc1ccccc1 [Example 193, 2-(N-t-butylbenzyl)aminoethyl-2-thiophenylketone] | 0 | 0 | 0 | 70 | 95 | 100 | –
16 | CC(C)N(CCC(=O)c1ccc2ccccc2c1)Cc1ccccc1 [Example 66, 2-(N-isopropylbenzyl)aminoethyl-2-naphthylketone] | 0 | 0 | 0 | 10 | 10 | 70 | –
17 | CC(C)N(CCO)CCC(=O)c1ccc2ccccc2c1 [Example 205, 2-(N-hydroxyethylisopropyl)aminoethyl-2-naphthylketone] | 0 | 0 | 0 | 0 | 0 | 0 | –
18 | O=C(CCN(CCO)CCO)c1ccc(Br)s1 [Example 330, 2-(N-bishydroxyethyl)aminoethyl-5-bromo-2-thienylketone] | 10 | 10 | 20 | 30 | 40 | 50 | –
19 | CCN(CCC(=O)c1ccc2c(c1)Cc1ccccc1-2)Cc1ccccc1 [Example 218, 2-(N-benzylethyl)aminoethyl-2-florenylketone] | 20 | 60 | 70 | 10 | 40 | 70 | –
20 | CCN(CCC(=O)c1nccs1)Cc1ccccc1 [Example 289, 2-(N-ethylbenzyl)aminoethyl-2-thiazolylketone] | – | 0 | 10 | 40 | 80 | 100 | –
21 | CCN(CCC(=O)c1cccnc1)Cc1ccccc1 [Example 144, 2-(N-benzylethyl)aminoethyl-3-pyridylketone] | 0 | 0 | 0 | 30 | 40 | 50 | –
22 | CC(C)(C)N(CCO)CCC(=O)c1cccnc1 [Example 232, 2-(N-t-butyl-2-hydroxyethyl)aminoethyl-3-pyridylketone] | 0 | 0 | 0 | 0 | 10 | 10 | –
23 | CC(C)(C)N(CCC(=O)c1ccsc1)Cc1ccccc1 [Example 238, 2-(N-benzyl-t-butyl)aminoethyl-3-thiophenylketone] | 0 | 0 | 0 | 10 | 0 | 0 | –
